This experiment concerns the target Ras-related C3 botulinum toxin substrate 3 (Homo sapiens) (UniProt P60763). The experiment is described as follows: ligand-induced RAC3 melting temperature shift – biophysical, recombinant human protein, DSF (AID 504). To be noted: recombinant RAC3, DSF thermal shift, SYPRO orange; at 10 µM; protein 2 µM; buffer 10 mM HEPES; pH 7.5; NaCl 150 mM; hits give high values.

For `N#CC(C(N)Sc1ccccc1N)C(C#N)C(N)Sc1ccccc1N` (configuration not stated), the Tm shift was 2.4 °C.

As to `N#C/C(=C1\Nc2ccccc2S1)c1ccnc(NCCc2cccnc2)n1`, the Tm shift is 2.3 °C.
